Results taken from patent US20190169221A1, “SUBSTITUTED NUCLEOSIDES, NUCLEOTIDES AND ANALOGS THEREOF” (Janssen BioPharma, Inc., priority 2016, published 2019).
Like-named read-outs stand apart in the source and are kept apart here.

Tests used:
[1] = test system: Human rhinovirus 1B; assay: Picornavirus / enterovirus assay, HRV 1B (HeLa-OHIO cells); format: cell-based; conditions: read-out: HRV 1B EC50
[2] = test system: Dengue virus type 2 strain New Guinea C (NG-C); assay: Dengue viral assay (cytopathic effect, Huh-7.5 cells); format: cell-based; conditions: read-out: Dengue NGC EC50
Protocol: The Dengue virus type 2 strain New Guinea C (NG-C) and the Dengue virus type 4 strain H241 were purchased from ATCC (Manassas, Va.; item numbers VR-1584 and VR-1490, respectively). The Zika virus strain MR766 was purchased from ATCC (item #VR-1838) and the Zika virus strain IbH 30656 was purchased from BEI Resources (Manassas, Va.; item number NR-500066). 24 h prior to dosing, Huh-7.5 cells were plated in 96 well plates at a density of 1.5×10^5/mL in DMEM medium supplemented with 10% fetal bovine serum, 1% HEPES buffer, 1% Penicillin/Streptomycin and 1% non-essential amino acids (all Mediatech, Manassas, Va.). At the day of infection, serially diluted compounds were added to cells and incubated for 24 h. After the end of the 24 h pre-incubation period, cells were infected with either Dengue virus type 2 NG-C, Dengue virus type 4 H241, Zika virus strain MR766 or Zika virus strain IbH 30656. The virus inoculum was selected to cause 80-90% cytopathic effect in four (Zika) to five (Dengue) days. Infected cells were incubated for four to five days at 37° C., 5% CO2. To develop the assay, 100 μL media was replaced with 100 μl CellTiter-Glo® reagent (Promega, Madison, Wis.) and incubated for 10 mins at R.T. Luminescence was measured on a Victor ×3 multi-label plate reader. Potential compound cytotoxicity was determined using uninfected parallel cultures.

[3] = target: NS5B-BK (Delta-21) (Hepatitis C virus genotype 1b, UniProt P26663); assay: biochemical; parameters: species or system HCV
Sequence of NS5B-BK (Delta-21) (P26663 2420-2989 limits assumed): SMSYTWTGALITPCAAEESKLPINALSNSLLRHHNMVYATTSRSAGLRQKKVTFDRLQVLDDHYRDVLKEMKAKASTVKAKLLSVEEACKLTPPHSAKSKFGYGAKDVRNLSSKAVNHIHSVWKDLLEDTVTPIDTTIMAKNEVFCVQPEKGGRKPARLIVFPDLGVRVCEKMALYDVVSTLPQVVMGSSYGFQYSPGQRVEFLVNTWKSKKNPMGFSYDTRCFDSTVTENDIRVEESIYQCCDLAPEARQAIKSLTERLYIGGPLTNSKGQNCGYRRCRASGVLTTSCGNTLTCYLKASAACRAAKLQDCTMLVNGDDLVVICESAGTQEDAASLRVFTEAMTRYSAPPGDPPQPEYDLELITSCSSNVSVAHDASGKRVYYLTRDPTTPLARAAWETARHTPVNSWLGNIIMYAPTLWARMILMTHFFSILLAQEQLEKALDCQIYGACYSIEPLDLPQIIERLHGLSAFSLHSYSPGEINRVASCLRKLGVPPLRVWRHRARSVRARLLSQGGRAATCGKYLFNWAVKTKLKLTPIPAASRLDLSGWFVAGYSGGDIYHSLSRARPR

[4] = target: human rhinovirus 16 polymerase (HRV16pol) (Human rhinovirus 16, UniProt Q82122); assay: Picornavirus polymerase inhibition assay; format: biochemical; conditions: triphosphates, read-out: Viral Polymerase Inhibition IC50 Picornavirus
Sequence of human rhinovirus 16 polymerase (HRV16pol) (Q82122 1694-2153 limits assumed): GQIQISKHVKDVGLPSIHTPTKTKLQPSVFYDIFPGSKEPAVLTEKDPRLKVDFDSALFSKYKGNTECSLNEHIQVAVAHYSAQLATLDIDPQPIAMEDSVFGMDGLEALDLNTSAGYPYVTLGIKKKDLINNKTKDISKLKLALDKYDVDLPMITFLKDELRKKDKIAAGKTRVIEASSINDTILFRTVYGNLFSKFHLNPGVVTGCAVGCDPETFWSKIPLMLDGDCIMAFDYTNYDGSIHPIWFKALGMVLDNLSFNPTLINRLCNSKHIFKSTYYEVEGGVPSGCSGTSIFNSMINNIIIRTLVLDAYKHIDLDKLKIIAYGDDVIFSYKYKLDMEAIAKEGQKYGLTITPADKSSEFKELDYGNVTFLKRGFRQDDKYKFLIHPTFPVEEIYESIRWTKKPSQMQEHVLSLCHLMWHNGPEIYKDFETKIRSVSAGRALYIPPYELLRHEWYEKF
Protocol: The enzyme activity of human rhinovirus 16 polymerase (HRV16pol) was measured as an incorporation of tritiated NMP into acid-insoluble RNA products. hV16pol assay reactions contained […] recombinant enzyme, 50 nM heteropolymeric RNA, about 0.5 μCi tritiated NTP, 0.1 mM of competing cold NTP, 40 mM Tris-HCl (pH 7.0), […] dithiothreitol and 0.5 mM MgCl2. Standard reactions were incubated for 2.5 h at 30° C., in the presence of increasing concentration of inhibitor. At the end of the reaction, RNA was precipitated with 10% TCA and acid-insoluble RNA products were filtered on a size exclusion 96-well plate. After washing of the plate, scintillation liquid was added and radiolabeled RNA products were detected using standard procedures with a Trilux Microbeta scintillation counter. The compound concentration at which the enzyme-catalyzed rate was reduced by 50% (IC50) was calculated by fitting the data to a non-linear regression (sigmoidal).

[5] = target: Dengue viral polymerase (Dengue virus type 2, UniProt P14340); assay: biochemical; conditions: triphosphates; read-out: Viral Polymerase Inhibition IC50 Dengue
[6] = Rhinovirus A, HeLa-OHIO cells, 33° C.
[7] = Huh7.5, Dengue virus type 2 (NG-C strain)
[8] = Dengue virus type 2 (NG-C strain)

C#C[C@]1(O)[C@H](n2cnc3c(N)ncnc32)O[C@](F)(COC(C)=O)[C@H]1OC(C)=O [Compound 2, ((2S,3S,4R,5R)-3-acetoxy-5-(6-amino-9H-purin-9-yl)-4-ethynyl-2-fluoro-4-hydroxytetrahydrofuran-2-yl)methyl acetate]
EC50 [1, 6]: < 3 µM | EC50 [2, 7]: < 3 µM

C#C[C@]1(O)[C@H](n2cnc3c(N)ncnc32)O[C@](F)(COC(=O)C(C)C)[C@H]1OC(=O)C(C)C [Compound 3, (2S,3S,4R,5R)-5-(6-amino-9H-purin-9-yl)-4-ethynyl-2-fluoro-4-hydroxy-2-((isobutyryloxy)methyl)tetrahydrofuran-3-ylisobutyrate]
EC50 [1, 6]: < 3 µM | EC50 [2, 7]: < 3 µM

C#C[C@@]1(O)[C@H](O)[C@@H](CO)O[C@H]1n1cnc2c(N)nc(F)nc21 [Compound 4, (2R,3R,4R,5R)-2-(6-amino-2-fluoro-9H-purin-9-yl)-3-ethynyl-5-(hydroxymethyl)tetrahydrofuran-3,4-diol]
EC50 [1, 6]: 3 to 30 µM | EC50 [2, 7]: > 100 µM

C#C[C@]1(O)[C@H](n2ccc3c(N)ncnc32)O[C@](F)(CO)[C@H]1O [Compound 6, (2S,3S,4R,5R)-5-(4-amino-7H-pyrrolo[2,3-d]pyrimidin-7-yl)-4-ethynyl-2-fluoro-2-(hydroxymethyl)tetrahydrofuran-3,4-diol]
EC50 [1, 6]: < 3 µM | EC50 [2, 7]: 3 to 30 µM

C#C[C@]1(O)[C@H](n2cc(C(N)=O)c3c(N)ncnc32)O[C@](F)(CO)[C@H]1O [Compound 10, 4-amino-7-((2R,3R,4S,5S)-3-ethynyl-5-fluoro-3,4-dihydroxy-5-(hydroxymethyl)tetrahydrofuran-2-yl)-7H-pyrrolo[2,3-d]pyrimidine-5-carboxamide]
EC50 ([1]; Rhinovirus A): > 100 µM | EC50 [2, 7]: 3 to 30 µM

C[C@@]1(O)[C@H](O)[C@@H](CO)O[C@H]1n1cnc2c(N)nc(F)nc21 [Compound 16]
EC50 [1, 6]: 3 to 30 µM | EC50 [2, 7]: > 100 µM

C#C[C@@]1(O)[C@H](O)[C@@H](COP(=O)(O)OP(=O)(O)OP(=O)(O)O)O[C@H]1n1cnc2c(N)nc(F)nc21 [Compound 17]
IC50 [3]: < 3 µM | IC50 [4]: < 3 µM | IC50 [5]: 3 to 30 µM

C#C[C@@]1(O)[C@H](O)[C@@H](COP(=O)(O)OP(=O)(O)OP(=O)(O)O)O[C@H]1n1cnc2c(N)nc(N)nc21 [Compound 18]
IC50 [3]: < 3 µM | IC50 [4]: < 3 µM | IC50 [5]: 3 to 30 µM

C#C[C@]1(O)[C@H](n2ccc3c(N)ncnc32)O[C@](F)(COP(=O)(O)OP(=O)(O)OP(=O)(O)O)[C@H]1O [Compound 19]
IC50 [3]: < 3 µM | IC50 [4]: < 3 µM | IC50 [5]: 3 to 30 µM

C[C@]1(O)[C@H](n2cnc3c(N)ncnc32)O[C@](F)(COP(=O)(O)OP(=O)(O)OP(=O)(O)O)[C@H]1O [Compound 20]
IC50 [3]: < 3 µM | IC50 [4]: < 3 µM | IC50 [5]: 3 to 30 µM

C[C@]1(F)[C@H](n2cnc3c(N)nc(N)nc32)O[C@](F)(COP(=O)(O)OP(=O)(O)OP(=O)(O)O)[C@H]1O [Compound 21]
IC50 [3]: < 3 µM | IC50 [4]: < 3 µM | IC50 [5]: 30 to 100 µM

C[C@]1(F)[C@H](n2cnc3c(N)ncnc32)O[C@](F)(COP(=O)(O)OP(=O)(O)OP(=O)(O)O)[C@H]1O [Compound 22]
IC50 [3]: < 3 µM | IC50 [4]: < 3 µM | IC50 [5]: 3 to 30 µM

C#C[C@]1(O)[C@H](n2cnc3c(N)ncnc32)O[C@](F)(COP(=O)(O)OP(=O)(O)OP(=O)(O)O)[C@H]1O [Compound 23]
IC50 [3]: < 3 µM | IC50 [4]: < 3 µM | IC50 [5]: < 3 µM

C=C=C[C@@]1(O)[C@H](O)[C@@H](COP(=O)(O)OP(=O)(O)OP(=O)(O)O)O[C@H]1n1cnc2c(N)ncnc21 [Compound 25]
IC50 [3]: < 3 µM | IC50 [4]: 3 to 30 µM | IC50 [5]: 3 to 30 µM

C#C[C@@]1(O)[C@H](O)[C@@H](CO)O[C@H]1c1cnc2c(N)ncnn12 [Compound 27, (2S,3R,4R,5R)-2-(4-aminoimidazo[2,1-f][1,2,4]triazin-7-yl)-3-ethynyl-5-(hydroxymethyl)tetrahydrofuran-3,4-diol]
EC50 [1, 6]: < 3 µM | EC50 [2, 7]: < 3 µM

C#C[C@]1(OC(C)=O)[C@H](n2cnc3c(N)ncnc32)O[C@](F)(COC(C)=O)[C@H]1OC(C)=O [Compound 34, (2S,3S,4R,5R)-2-(acetoxymethyl)-5-(6-amino-9H-purin-9-yl)-4-ethynyl-2-fluorotetrahydrofuran-3,4-diyldiacetate]
EC50 ([1]; HeLa-OHIO cells, 33° C.): < 3 µM | EC50 [2, 8]: < 3 µM

C#C[C@@]1(O)[C@H](O)[C@@H](COP(=O)(O)OP(=O)(O)OP(=O)(O)O)O[C@H]1n1cnc2c(=O)[nH]cnc21 [Compound 35]
IC50 [3]: < 3 µM | IC50 [4]: > 100 µM | IC50 [5]: < 3 µM

C#C[C@]1(O)[C@H](n2cnc3c(N)ncnc32)O[C@](F)(COC(=O)CC)[C@H]1OC(=O)CC [Compound 36]
EC50 [1, 6]: < 3 µM | EC50 [2, 7]: < 3 µM

C#C[C@]1(O)[C@H](n2cnc3c(N)ncnc32)O[C@](F)(COC(=O)CCC)[C@H]1OC(=O)CCC [Compound 37, (2S,3S,4R,5R)-5-(6-amino-9H-purin-9-yl)-2-((butyryloxy)methyl)-4-ethynyl-2-fluoro-4-hydroxytetrahydrofuran-3-ylbutyrate]
EC50 [1, 6]: < 3 µM | EC50 [2, 7]: < 3 µM

C#C[C@]1(OC(=O)CC)[C@H](n2cnc3c(N)ncnc32)O[C@](F)(COC(=O)CC)[C@H]1OC(=O)CC [Compound 38, (2S,3S,4R,5R)-5-(6-amino-9H-purin-9-yl)-4-ethynyl-2-fluoro-2-((propionyloxy)methyl)tetrahydrofuran-3,4-diyldipropionate]
EC50 [1, 6]: < 3 µM | EC50 [2, 7]: < 3 µM

C#C[C@]1(O)[C@H](n2cnc3c(N)ncnc32)O[C@](F)(CO)[C@H]1OC(=O)CCCCCCCCC [Compound 39, (2S,3S,4R,5R)-5-(6-amino-9H-purin-9-yl)-4-ethynyl-2-fluoro-4-hydroxy-2-(hydroxymethyl)tetrahydrofuran-3-yldecanoate]
EC50 [1, 6]: < 3 µM | EC50 [2, 7]: < 3 µM

C#C[C@]1(O)[C@H](n2cnc3c(NC(=O)OC(C)(C)C)ncnc32)O[C@](F)(COC(c2ccccc2)(c2ccccc2)c2ccc(OC)cc2)[C@H]1OC(=O)CCCCCCC [Compound 40]
EC50 ([1]; HeLa-OHIO cells, 33° C.): < 3 µM | EC50 [2, 8]: < 3 µM

C#C[C@]1(O)[C@H](n2cnc3c(N)ncnc32)O[C@](F)(CO)[C@H]1OC(=O)[C@@H](N)C(C)C [Compound 41, (2S,3S,4R,5R)-5-(6-amino-9H-purin-9-yl)-4-ethynyl-2-fluoro-4-hydroxy-2-(hydroxymethyl)tetrahydrofuran-3-yl L-valinate]
EC50 [1, 6]: < 3 µM | EC50 [2, 7]: < 3 µM

C#C[C@]1(O)[C@H](n2cnc3c(NC(=O)OC(C)(C)C)ncnc32)O[C@](F)(COC(c2ccccc2)(c2ccccc2)c2ccc(OC)cc2)[C@H]1OC(=O)CCCCCCCCCCC [Compound 42, (2S,3S,4R,5R)-5-(6-((tert-butoxycarbonyl)amino)-9H-purin-9-yl)-4-ethynyl-2-fluoro-4-hydroxy-2-(((4-methoxyphenyl)diphenylmethoxy)methyl)tetrahydrofuran-3-yl-dodecanoate]
EC50 [1, 6]: < 3 µM | EC50 [2, 7]: < 3 µM

C#C[C@]1(O)[C@H](n2cnc3c(N)ncnc32)O[C@](F)(COC(=O)CCCCCCCCC)[C@H]1O [Compound 44, ((2S,3S,4R,5R)-5-(6-amino-9H-purin-9-yl)-4-ethynyl-2-fluoro-3,4-dihydroxytetrahydrofuran-2-yl)methyldecanoate]
EC50 [1, 6]: < 3 µM | EC50 [2, 7]: < 3 µM

C#C[C@]1(O)[C@H](n2cc(C#N)c3c(N)ncnc32)O[C@](F)(COP(=O)(O)OP(=O)(O)OP(=O)(O)O)[C@H]1O [Compound 45]
IC50 [3]: < 3 µM | IC50 [4]: < 3 µM | IC50 [5]: < 3 µM

C#C[C@]1(O)[C@H](n2cnc3c(N)ncnc32)O[C@](F)(CO)[C@H]1OC(=O)NCCC [Compound 49, (2S,3S,4R,5R)-5-(6-amino-9H-purin-9-yl)-4-ethynyl-2-fluoro-4-hydroxy-2-(hydroxymethyl)tetrahydrofuran-3-ylpropylcarbamate]
EC50 ([1]; HeLa-OHIO cells, 33° C.): 3 to 30 µM | EC50 [2, 8]: 30 to 100 µM

(2S,3S,4R,5R)-5-(4-amino-5-fluoro-7H-pyrrolo[2,3-d]pyrimidin-7-yl)-4-ethynyl-2-fluoro-2-(hydroxymethyl)tetrahydrofuran-3,4-diol [Compound 31]
EC50 ([1]; HeLa-OHIO cells, 33° C.): < 3 µM | EC50 [2, 8]: < 3 µM
